Laboratory results taken from PubChem BioAssay (NCI).
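Five concentrations, 48 hours, 96-well plates. Definition used: TGI = concentration required for complete inhibition of growth.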

Assays:
Assay in all cases: NCI-60 cell line screen, 48 h
[1] = test system: SF-295 CNS
[2] = test system: T-47D breast
[3] = test system: MCF7 breast
[4] = test system: U251 CNS
[5] = test system: HCT-15 colon
[6] = test system: DU-145 prostate
[7] = test system: SK-OV-3 ovarian
[8] = test system: HCT-116 colon
[9] = test system: LOX IMVI melanoma
[10] = test system: EKVX NSCLC
[11] = test system: MALME-3M melanoma
[12] = test system: UACC-62 melanoma
[13] = test system: A549 NSCLC
[14] = test system: NCI-H226 lung
[15] = test system: HL-60(TB) leukemia
[16] = test system: PC-3 prostate
[17] = test system: SF-539 CNS
[18] = test system: SK-MEL-28 melanoma
[19] = test system: MDA-N
[20] = test system: M14 melanoma
[21] = test system: OVCAR-3 ovarian
[22] = test system: TK-10 renal
[23] = test system: HS 578T breast
[24] = test system: SF-268 CNS
[25] = test system: HOP-62 NSCLC
[26] = test system: SR leukemia
[27] = test system: 786-0 renal
[28] = test system: MDA-MB-435
[29] = test system: KM12 colon
[30] = test system: SK-MEL-5 melanoma
[31] = test system: OVCAR-8 ovarian
[32] = test system: ACHN renal
[33] = test system: MOLT-4 leukemia
[34] = test system: UACC-257 melanoma
[35] = test system: SNB-19 CNS
[36] = test system: CCRF-CEM leukemia
[37] = test system: CAKI-1 renal
[38] = test system: MDA-MB-231 breast
[39] = test system: NCI/ADR-RES ovarian
[40] = test system: NCI-H460 lung
[41] = test system: OVCAR-5 ovarian
[42] = test system: NCI-H23 lung
[43] = test system: A498 renal
[44] = test system: SW-620 colon
[45] = test system: HT29 colon
[46] = test system: SN12C renal
[47] = test system: K-562 leukemia
[48] = test system: UO-31 renal
[49] = test system: HOP-92 NSCLC
[50] = test system: COLO 205 colon
[51] = test system: RXF 393 renal
[52] = test system: SNB-75 CNS
[53] = test system: RPMI-8226 leukemia
[54] = test system: HCC-2998 colon
[55] = test system: SK-MEL-2 melanoma
[56] = test system: IGROV1 ovarian

In the case of `Cc1c(-c2ccccn2)ccc2ccccc12`, the TGI [1] is reported as > 100 µM, the TGI [2] is reported as > 100 µM and the TGI [3] is reported as > 100 µM. For the same molecule, the TGI [4] was > 100 µM, the TGI [5] was > 100 µM and the TGI [6] was > 100 µM. The TGI [7] was > 100 µM, the TGI [8] was > 100 µM and the TGI [9] was > 100 µM. For the same molecule, the TGI [10] was > 100 µM, the TGI [11] was > 100 µM and the TGI [12] was > 100 µM. The TGI [13] was > 100 µM, the TGI [14] was > 100 µM and the TGI [15] was > 100 µM. For the same molecule, the TGI [16] was > 100 µM, the TGI [17] was > 100 µM and the TGI [18] was > 100 µM. The TGI [19] was > 100 µM, the TGI [20] was > 100 µM and the TGI [21] was > 100 µM. For the same molecule, the TGI [22] was > 100 µM, the TGI [23] was > 100 µM and the TGI [24] was > 100 µM. The TGI [25] was > 100 µM, the TGI [26] was > 100 µM and the TGI [27] was > 100 µM. The TGI [28] was > 100 µM, the TGI [29] was > 100 µM and the TGI [30] was > 100 µM. For the same molecule, the TGI [31] was > 100 µM, the TGI [32] was > 100 µM and the TGI [33] was > 100 µM. The TGI [34] was > 100 µM, the TGI [35] was > 100 µM and the TGI [36] was > 100 µM. The TGI [37] was > 100 µM, the TGI [38] was > 100 µM and the TGI [39] was > 100 µM. The TGI [40] was > 100 µM, the TGI [41] was > 100 µM and the TGI [42] was > 100 µM. The TGI [43] was > 100 µM, the TGI [44] was > 100 µM and the TGI [45] was > 100 µM. For the same molecule, the TGI [46] was > 100 µM, the TGI [47] was > 100 µM and the TGI [48] was 82.9 µM. For the same molecule, the TGI [49] was > 100 µM, the TGI [50] was > 100 µM and the TGI [51] was 93.2 µM. For the same molecule, the TGI [52] was > 100 µM, the TGI [53] was 44.1 µM and the TGI [54] was > 100 µM.
For `C=CCOC(=O)Cn1ccc(=O)[nH]c1=O`, the TGI [1] was > 100 µM, the TGI [2] was > 100 µM and the TGI [3] was > 100 µM. The TGI [4] was > 100 µM, the TGI [5] was > 100 µM and the TGI [6] was > 100 µM. The TGI [7] was > 100 µM, the TGI [8] was > 100 µM and the TGI [9] was > 100 µM. For the same molecule, the TGI [10] was > 100 µM, the TGI [11] was > 100 µM and the TGI [12] was > 100 µM. The TGI [13] was > 100 µM, the TGI [14] was > 100 µM and the TGI [15] was > 100 µM. The TGI [16] was > 100 µM, the TGI [17] was > 100 µM and the TGI [18] was > 100 µM. For the same molecule, the TGI [19] was > 100 µM, the TGI [20] was > 100 µM and the TGI [55] was > 100 µM. The TGI [22] was > 100 µM, the TGI [23] was > 100 µM and the TGI [24] was > 100 µM. For the same molecule, the TGI [25] was > 100 µM, the TGI [26] was > 100 µM and the TGI [27] was > 100 µM. For the same molecule, the TGI [29] was > 100 µM, the TGI [30] was > 100 µM and the TGI [31] was > 100 µM. For the same molecule, the TGI [32] was > 100 µM, the TGI [33] was > 100 µM and the TGI [34] was > 100 µM. For the same molecule, the TGI [35] was > 100 µM, the TGI [36] was > 100 µM and the TGI [37] was > 100 µM. For the same molecule, the TGI [38] was > 100 µM, the TGI [39] was > 100 µM and the TGI [40] was > 100 µM. For the same molecule, the TGI [41] was > 100 µM, the TGI [42] was > 100 µM and the TGI [43] was > 100 µM. For the same molecule, the TGI [44] was > 100 µM, the TGI [45] was > 100 µM and the TGI [46] was > 100 µM. The TGI [47] was > 100 µM, the TGI [48] was > 100 µM and the TGI [56] was > 100 µM. For the same molecule, the TGI [50] was > 100 µM, the TGI [52] was > 100 µM and the TGI [53] was > 100 µM. The TGI [54] was > 100 µM.
